Laboratory results reported in PMC9992855, “Functional polyamine metabolic enzymes and pathways encoded by the virosphere” (Proceedings of the National Academy of Sciences of the …, 2023).

Legend:
KNV1 arginase homolog = test system: T1, KNV1 arginase homolog; assay: released urea detection; type: biochemical, Klosneuvirus KNV1
T1 construct: expressed in E. coli, purified

[1] = test system: T2, Pelagiphage HTVC201P "AdoMetDC" (pyruvoyl-dependent ADC); assay: decarboxylase activity assay; type: biochemical, Pelagibacter phage HTVC201P; details: 27 °C
T2 construct: gene speD; 122 aa; recombinant, purified; class 1b AdoMetDC homolog, pyruvoyl enzyme
Text: decarboxylase activity assay on Pelagiphage HTVC201P "AdoMetDC" (pyruvoyl-dependent ADC)

[2] = test system: T3, UCP01 AdoMetDC homolog (pyruvoyl-dependent ODC); assay: decarboxylase activity assay; type: biochemical, uncultured Myoviridae sp.; details: 26 °C
T3 construct: gene speD; 117 aa; recombinant, purified; pyruvoyl enzyme
Text: decarboxylase activity assay on UCP01 AdoMetDC homolog (pyruvoyl-dependent ODC)

[3] = test system: T4, UCP04 AdoMetDC homolog (pyruvoyl-dependent ODC); details: 26 °C
T4 construct: gene speD
Text: decarboxylase activity assay on UCP04 AdoMetDC homolog (pyruvoyl-dependent ODC)

[4] = test system: T5, UCP03 AdoMetDC homolog (pyruvoyl-dependent ODC); details: 26 °C
T5 construct: gene speD
Text: decarboxylase activity assay on UCP03 AdoMetDC homolog (pyruvoyl-dependent ODC)

Klosneuvirus KNV1 ODC = details: 26 °C
[5] = test system: T6, UCP02 AdoMetDC homolog (pyruvoyl-dependent ODC); details: 26 °C
T6 construct: gene speD
Text: decarboxylase activity assay on UCP02 AdoMetDC homolog (pyruvoyl-dependent ODC)

[6] = test system: T7, LBP AdoMetDC homolog (pyruvoyl-dependent ODC); details: 26 °C
T7 construct: gene speD
Text: decarboxylase activity assay on LBP AdoMetDC homolog (pyruvoyl-dependent ODC)

[7] = test system: Yellowstone Lake phycodnavirus 2 ODC; details: 26 °C
Text: decarboxylase activity assay on Yellowstone Lake phycodnavirus 2 ODC

Hyperionvirus sp. APAH = test system: T8, Hyperionvirus sp. APAH; assay: colorimetric acetate release; type: biochemical; details: 26 °C
T8 construct: 351 aa; expressed in E. coli, purified
Text: colorimetric acetate release on Hyperionvirus sp. APAH

Klosneuvirus KNV1 APAH = test system: T9, Klosneuvirus KNV1 APAH; assay: colorimetric acetate release; type: biochemical; details: 26 °C
T9 construct: 345 aa; expressed in E. coli, purified
Text: colorimetric acetate release on Klosneuvirus KNV1 APAH

Compound `N=C(N)NCCC[C@H](N)C(=O)O` [L-arginine] has a Km (KNV1 arginase homolog) of 1300 ± 160 µM, a Km [1] of 870 ± 110 µM and a Km [2] of 2200 ± 290 µM.

`NCCC[C@H](N)C(=O)O` [L-ornithine] gave a Km [3] of 440 ± 40 µM, a Km [4] of 620 ± 10 µM and a Km (Klosneuvirus KNV1 ODC) of 430 ± 20 µM. The Km [5] was 2400 ± 190 µM, the Km [6] was 3800 ± 430 µM and the Km [7] was 540 ± 200 µM. It also gave a Km [2] of 5500 ± 290 µM.

In the case of `CC(=O)NCCCNCCCCN` [N^1-acetylspermidine], the Km (Hyperionvirus sp. APAH) is reported as 1600 ± 160 µM and the Km (Klosneuvirus KNV1 APAH) is reported as 240 ± 20 µM.

In the case of `CC(=O)NCCCCNCCCN` [N^8-acetylspermidine], the Km (Hyperionvirus sp. APAH) is reported as 5000 ± 730 µM and the Km (Klosneuvirus KNV1 APAH) is reported as 450 ± 10 µM.
